Assay results published in patent US20240383875A1, “Benzimidazole Pyridine Derivatives” (Hoffmann-La Roche Inc., priority 2022, published 2024).

Key:
Type in all cases: biochemical
[1] = target: SIK3 (Homo sapiens, UniProt Q9Y2K2); assay: Enzymatic activity assay SIK3, RapidFire mass spectrometry (phosphorylation of CHK-peptide); details: RapidFire MS, inhibition of SIK3; read-out: SIK3 RF IC50
In short: (§1)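 Compounds (12-point, 3-fold, generally 30 μM to 170 pM) were pre-incubated 30 min at ambient temperature with SIK1 (5 nM), SIK2 (0.5 nM) or SIK3 (1.5 nM) in HEPES pH 7.0/magnesium acetate buffer. CHK-peptide (10 μM solution) and ATP (100 μM solution) were then added for 45 min before formic acid quench.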

[2] = target: SIK2 (Homo sapiens, UniProt Q9H0K1); assay: Enzymatic activity assay SIK2, RapidFire mass spectrometry (phosphorylation of CHK-peptide); details: RapidFire MS, inhibition of SIK2; read-out: SIK2 RF IC50
Sequence of SIK2 (Q9H0K1 whole entry): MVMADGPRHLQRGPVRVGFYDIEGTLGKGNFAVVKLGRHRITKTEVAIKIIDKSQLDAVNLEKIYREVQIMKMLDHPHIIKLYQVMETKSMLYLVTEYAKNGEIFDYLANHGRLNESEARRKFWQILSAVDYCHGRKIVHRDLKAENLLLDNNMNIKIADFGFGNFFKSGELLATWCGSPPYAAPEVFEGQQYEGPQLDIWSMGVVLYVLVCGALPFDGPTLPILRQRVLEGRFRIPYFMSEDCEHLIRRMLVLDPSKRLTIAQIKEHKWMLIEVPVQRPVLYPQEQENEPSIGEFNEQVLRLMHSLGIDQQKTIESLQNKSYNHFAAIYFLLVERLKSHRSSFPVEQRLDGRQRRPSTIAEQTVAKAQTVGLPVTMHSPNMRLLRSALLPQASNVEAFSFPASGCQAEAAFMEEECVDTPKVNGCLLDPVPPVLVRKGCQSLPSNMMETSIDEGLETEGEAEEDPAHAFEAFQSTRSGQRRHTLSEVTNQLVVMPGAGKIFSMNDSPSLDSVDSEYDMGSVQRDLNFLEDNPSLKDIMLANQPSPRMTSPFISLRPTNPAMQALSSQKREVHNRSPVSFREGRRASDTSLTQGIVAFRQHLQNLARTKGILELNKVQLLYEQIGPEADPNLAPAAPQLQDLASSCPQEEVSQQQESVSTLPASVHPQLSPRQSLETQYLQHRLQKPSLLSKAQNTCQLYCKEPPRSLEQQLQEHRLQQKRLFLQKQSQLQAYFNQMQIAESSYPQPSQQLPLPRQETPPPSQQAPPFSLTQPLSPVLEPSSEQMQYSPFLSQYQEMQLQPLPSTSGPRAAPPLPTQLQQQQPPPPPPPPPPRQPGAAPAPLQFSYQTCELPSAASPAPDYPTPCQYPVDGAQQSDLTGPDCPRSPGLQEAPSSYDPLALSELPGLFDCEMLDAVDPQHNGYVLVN
In short: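 SIK2 (0.5 nM) in pH 7.0 HEPES buffer with 10 mM Mg acetate phosphorylates CHK-peptide (10 μM solution) with 100 μM ATP solution, 45 min ambient, then formic acid quench.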

[3] = target: SIK1 (Homo sapiens, UniProt P57059); assay: Enzymatic activity assay SIK1, RapidFire mass spectrometry (phosphorylation of CHK-peptide); details: RapidFire MS, inhibition of SIK1; read-out: SIK1 RF IC50
Sequence of SIK1 (P57059 whole entry): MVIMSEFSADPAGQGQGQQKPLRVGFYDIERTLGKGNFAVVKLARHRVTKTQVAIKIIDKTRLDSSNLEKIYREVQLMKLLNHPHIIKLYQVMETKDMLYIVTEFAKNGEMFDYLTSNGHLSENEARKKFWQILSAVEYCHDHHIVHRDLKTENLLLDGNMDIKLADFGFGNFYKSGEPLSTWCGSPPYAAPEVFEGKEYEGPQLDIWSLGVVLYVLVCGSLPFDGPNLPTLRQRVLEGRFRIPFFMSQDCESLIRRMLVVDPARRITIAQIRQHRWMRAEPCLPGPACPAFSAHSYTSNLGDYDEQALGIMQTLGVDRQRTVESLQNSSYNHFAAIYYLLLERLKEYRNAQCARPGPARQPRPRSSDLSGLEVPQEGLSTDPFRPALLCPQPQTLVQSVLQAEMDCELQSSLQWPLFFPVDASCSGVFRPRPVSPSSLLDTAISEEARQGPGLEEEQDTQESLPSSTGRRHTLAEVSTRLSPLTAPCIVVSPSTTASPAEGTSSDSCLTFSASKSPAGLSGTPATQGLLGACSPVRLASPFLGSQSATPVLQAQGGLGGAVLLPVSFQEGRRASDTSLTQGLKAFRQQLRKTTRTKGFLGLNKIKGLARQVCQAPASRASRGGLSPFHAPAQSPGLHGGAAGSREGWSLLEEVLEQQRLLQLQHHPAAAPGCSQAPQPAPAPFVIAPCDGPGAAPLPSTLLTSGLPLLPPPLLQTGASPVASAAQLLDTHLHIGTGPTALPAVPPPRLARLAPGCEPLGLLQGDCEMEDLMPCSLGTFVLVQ
In short: as §1

Sequence of SIK3 (Q9Y2K2 whole entry): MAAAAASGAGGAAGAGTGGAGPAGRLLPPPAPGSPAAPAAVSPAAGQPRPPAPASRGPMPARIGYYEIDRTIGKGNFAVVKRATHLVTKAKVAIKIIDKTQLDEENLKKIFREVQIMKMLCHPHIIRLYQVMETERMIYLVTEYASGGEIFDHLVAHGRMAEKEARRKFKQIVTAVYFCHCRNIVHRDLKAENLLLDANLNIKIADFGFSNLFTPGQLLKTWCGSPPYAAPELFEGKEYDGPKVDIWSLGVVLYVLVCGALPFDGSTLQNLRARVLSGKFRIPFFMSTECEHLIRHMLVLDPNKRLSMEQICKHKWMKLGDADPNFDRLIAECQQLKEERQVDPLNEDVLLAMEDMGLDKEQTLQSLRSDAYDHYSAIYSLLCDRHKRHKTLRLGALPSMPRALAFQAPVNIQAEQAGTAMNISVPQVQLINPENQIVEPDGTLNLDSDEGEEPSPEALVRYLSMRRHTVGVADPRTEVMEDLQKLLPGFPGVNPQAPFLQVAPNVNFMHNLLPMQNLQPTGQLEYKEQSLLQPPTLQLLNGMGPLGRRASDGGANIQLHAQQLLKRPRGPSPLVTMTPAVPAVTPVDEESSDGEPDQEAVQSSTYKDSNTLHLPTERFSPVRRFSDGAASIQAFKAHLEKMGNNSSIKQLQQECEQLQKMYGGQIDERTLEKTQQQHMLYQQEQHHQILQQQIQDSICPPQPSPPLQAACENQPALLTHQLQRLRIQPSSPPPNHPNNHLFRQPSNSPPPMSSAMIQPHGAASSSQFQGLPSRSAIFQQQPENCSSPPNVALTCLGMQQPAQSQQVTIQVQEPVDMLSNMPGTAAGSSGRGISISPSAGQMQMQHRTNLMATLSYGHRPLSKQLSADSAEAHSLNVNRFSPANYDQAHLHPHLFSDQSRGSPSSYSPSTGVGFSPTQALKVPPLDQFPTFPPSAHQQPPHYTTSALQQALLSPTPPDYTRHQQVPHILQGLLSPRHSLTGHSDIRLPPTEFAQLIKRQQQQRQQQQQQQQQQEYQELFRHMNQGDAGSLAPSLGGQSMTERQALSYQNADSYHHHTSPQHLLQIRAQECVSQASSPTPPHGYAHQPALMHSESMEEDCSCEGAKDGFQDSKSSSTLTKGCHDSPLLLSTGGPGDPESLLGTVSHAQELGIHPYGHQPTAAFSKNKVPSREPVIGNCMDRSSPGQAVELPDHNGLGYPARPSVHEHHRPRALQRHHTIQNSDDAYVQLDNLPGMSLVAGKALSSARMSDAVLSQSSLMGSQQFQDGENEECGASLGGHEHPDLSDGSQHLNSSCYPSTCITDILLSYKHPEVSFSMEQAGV

Row | Compound | IC50 [1] [nM] | IC50 [2] [nM] | IC50 [3] [nM]
1 | Cc1ccc(Nc2cc3ncn(-c4ccc([C@@H](C)O)c(-n5nc(C#N)cc5C)n4)c3cc2F)nn1 [Example 237, 1-[6-[6-Fluoro-5-[(6-methylpyridazin-3-yl)amino]benzimidazol-1-yl]-3-[(1R)-1-hydroxyethyl]-2-pyridyl]-5-methyl-pyrazole-3-carbonitrile] | 52.8 | 49.7 | 7820
2 | Cc1ccc(Nc2ccc3c(c2)ncn3-c2nc(-n3ccc(C#N)n3)c(C(C)O)cc2Cl)nn1 (stereo not drawn) [Example 239, 1-[5-Chloro-3-(1-hydroxyethyl)-6-[5-[(6-methylpyridazin-3-yl)amino]benzimidazol-1-yl]-2-pyridyl]pyrazole-3-carbonitrile] | 329 | 1390 | > 30000
3 | Cc1ccc(Nc2ccc3c(c2)ncn3-c2ccc(C(C)O)c(-c3cnn(CC(F)(F)F)c3C)n2)nn1 (stereo not drawn) [Example 240, 1-[6-[5-[(6-Methylpyridazin-3-yl)amino]benzimidazol-1-yl]-2-[5-methyl-1-(2,2,2-trifluoroethyl)pyrazol-4-yl]-3-pyridyl]ethanol; formic acid] | 0.2 | 0.3 | 43
4 | COc1cc(Cl)nnc1Nc1ccc2c(c1)ncn2-c1ccc(C(C)O)c(-n2nc(C#N)cc2C)n1 (stereo not drawn) [Example 241, 1-[6-[5-[(6-Chloro-4-methoxy-pyridazin-3-yl)amino]benzimidazol-1-yl]-3-(1-hydroxyethyl)-2-pyridyl]-5-methyl-pyrazole-3-carbonitrile] | 0.9 | 1.8 | 173
5 | Cc1ccc(Nc2ccc3c(c2)ncn3-c2ccc(C(C)O)c(N3C[C@H](C#N)C[C@@H]3C)n2)nn1 (stereo partly drawn) [Example 242, (3R,5S)-1-[3-(1-hydroxyethyl)-6-[5-[(6-methylpyridazin-3-yl)amino]benzimidazol-1-yl]-2-pyridyl]-5-methyl-pyrrolidine-3-carbonitrile; formic acid] | 1.8 | 9.5 | 843
6 | Cc1ccc(Nc2ccc3c(c2)ncn3-c2nc(-n3nc(C#N)cc3C)c(C(C)O)cc2Cl)nn1 (stereo not drawn) [Example 245, 1-[5-Chloro-3-(1-hydroxyethyl)-6-[5-[(6-methylpyridazin-3-yl)amino]benzimidazol-1-yl]-2-pyridyl]-5-methyl-pyrazole-3-carbonitrile; formic acid] | 67.4 | 72.5 | 6410
7 | Cc1ccc(Nc2ccc3c(c2)ncn3-c2ccc(C(C)O)c(-c3cc(C#N)n(C)n3)n2)nn1 (stereo not drawn) [Example 246, 5-[3-(1-Hydroxyethyl)-6-[5-[(6-methylpyridazin-3-yl)amino]benzimidazol-1-yl]-2-pyridyl]-2-methyl-pyrazole-3-carbonitrile; formic acid] | 5.4 | 29.5 | 7780
8 | Cc1ccc(Nc2ccc3ncn(-c4ccc([C@@H](C)O)c(-n5nc(C#N)cc5C)n4)c3c2)nn1 [Example 247, 1-[3-[(1R)-1-hydroxyethyl]-6-[6-[(6-methylpyridazin-3-yl)amino]benzimidazol-1-yl]-2-pyridyl]-5-methyl-pyrazole-3-carbonitrile] | 46.1 | 174 | 1440
9 | Cc1ccc(Nc2ccc3c(c2)ncn3-c2ccc(C(C)O)c(-n3nc(C(F)F)cc3C(F)F)n2)nn1 (stereo not drawn) [Example 248, 1-[2-[3,5-Bis(difluoromethyl)pyrazol-1-yl]-6-[5-[(6-methylpyridazin-3-yl)amino]benzimidazol-1-yl]-3-pyridyl]ethanol] | 0.7 | 1.8 | 242
10 | Cc1cc(C#N)nn1-c1nc(-n2cnc3cc(Nc4ccc(C(F)(F)F)nn4)ccc32)ccc1C(C)O (stereo not drawn) [Example 249, 1-[3-(1-Hydroxyethyl)-6-[5-[[6-(trifluoromethyl)pyridazin-3-yl]amino]benzimidazol-1-yl]-2-pyridyl]-5-methyl-pyrazole-3-carbonitrile] | 0.8 | 2.2 | 54
11 | CCn1nc(C(F)(F)F)cc1-c1nc(-n2cnc3cc(Nc4ccc(C)nn4)ccc32)ccc1C(C)O (stereo not drawn) [Example 250, 1-[2-[2-Ethyl-5-(trifluoromethyl)pyrazol-3-yl]-6-[5-[(6-methylpyridazin-3-yl)amino]benzimidazol-1-yl]-3-pyridyl]ethanol] | 4.8 | 25.2 | 985
12 | Cc1ccc(Nc2ccc3c(c2)ncn3-c2ccc([C@@H](C)O)c(-c3cn(CC(F)(F)F)nc3C)n2)nn1 [Example 251, (1R)-1-[6-[5-[(6-Methylpyridazin-3-yl)amino]benzimidazol-1-yl]-2-[3-methyl-1-(2,2,2-trifluoroethyl)pyrazol-4-yl]-3-pyridyl]ethanol] | 0.4 | 0.3 | 63

Further lines, results first:

Row | IC50 [1] [nM] | IC50 [2] [nM] | IC50 [3] [nM] | Compound
13 | 80.4 | 46.8 | 5620 | Cc1ccc(Nc2ccc3c(c2)ncn3-c2ccc([C@H](C)O)c(-c3cn(CC(F)(F)F)nc3C)n2)nn1 [Example 252, (1S)-1-[6-[5-[(6-Methylpyridazin-3-yl)amino]benzimidazol-1-yl]-2-[3-methyl-1-(2,2,2-trifluoroethyl)pyrazol-4-yl]-3-pyridyl]ethanol]
14 | 34.5 | 161 | 8970 | Cc1ccc(Nc2ccc3c(c2)ncn3-c2ccc(C(C)O)c(-n3cc(C#N)nn3)n2)nn1 (stereo not drawn) [Example 253, 1-[3-(1-Hydroxyethyl)-6-[5-[(6-methylpyridazin-3-yl)amino]benzimidazol-1-yl]-2-pyridyl]triazole-4-carbonitrile]
15 | 37.3 | 150 | 5110 | Cc1ccc(Nc2ccc3c(c2)ncn3-c2ccc(C(C)O)c(N3C[C@@H](C#N)C[C@H]3C)n2)nn1 (stereo partly drawn) [Example 254, (3S,5R)-1-[3-(1-hydroxyethyl)-6-[5-[(6-methylpyridazin-3-yl)amino]benzimidazol-1-yl]-2-pyridyl]-5-methyl-pyrrolidine-3-carbonitrile]
16 | 30.4 | 194 | 12800 | Cc1ccc(Nc2ccc3c(c2)ncn3-c2ccc(C(C)O)c(-c3cc(C#N)nn3C)n2)nn1 (stereo not drawn) [Example 255, 5-[3-(1-hydroxyethyl)-6-[5-[(6-methylpyridazin-3-yl)amino]benzimidazol-1-yl]-2-pyridyl]-1-methyl-pyrazole-3-carbonitrile]
17 | 4.8 | 22 | 1530 | Cc1ccc(Nc2ccc3c(c2)ncn3-c2ccc(C(C)O)c(-n3ncc(C#N)n3)n2)nn1 (stereo not drawn) [Example 256, 2-[3-(1-Hydroxyethyl)-6-[5-[(6-methylpyridazin-3-yl)amino]benzimidazol-1-yl]-2-pyridyl]triazole-4-carbonitrile]
18 | 158 | 144 | 330 | Cc1cc(C#N)nn1-c1nc(-n2cnc3cc(C#N)ccc32)ccc1C(C)O (stereo not drawn) [Example 263, 1-[6-(3-Cyano-5-methyl-pyrazol-1-yl)-5-(1-hydroxyethyl)-2-pyridyl]benzimidazole-5-carbonitrile]
19 | 1.5 | 2.6 | 851 | CCn1cc(-c2nc(-n3cnc4cc(Nc5ccc(C)nn5)ccc43)ccc2C(C)O)c(C)n1 (stereo not drawn) [Example 264, 1-[2-(1-Ethyl-3-methyl-pyrazol-4-yl)-6-[5-[(6-methylpyridazin-3-yl)amino]benzimidazol-1-yl]-3-pyridyl]ethanol; formic acid]
20 | 1.7 | 1.6 | 270 | COCCn1cc(-c2nc(-n3cnc4cc(Nc5ccc(C)nn5)ccc43)ccc2C(C)O)c(C)n1 (stereo not drawn) [Example 265, 1-[2-[1-(2-Methoxyethyl)-3-methyl-pyrazol-4-yl]-6-[5-[(6-methylpyridazin-3-yl)amino]benzimidazol-1-yl]-3-pyridyl]ethanol; formic acid]
21 | 1.4 | 1 | 136 | Cc1ccc(Nc2ccc3c(c2)ncn3-c2ccc(C(C)O)c(-c3cn(CC4CC4)nc3C)n2)nn1 (stereo not drawn) [Example 266, 1-[2-[1-(Cyclopropylmethyl)-3-methyl-pyrazol-4-yl]-6-[5-[(6-methylpyridazin-3-yl)amino]benzimidazol-1-yl]-3-pyridyl]ethanol; formic acid]
22 | 1030 | 211 | 151 | Cc1ccc(Nc2ccc3ncn(-c4ccc(CO)c(-n5nc(C#N)cc5C)n4)c3c2)nn1 [Example 269, 5-Methyl-1-[3-methylol-6-[6-[(6-methylpyridazin-3-yl)amino]benzimidazol-1-yl]-2-pyridyl]pyrazole-3-carbonitrile; formic acid]
23 | 0.2 | 0.8 | 134 | Cc1ccc(Nc2ccc3c(c2)ncn3-c2ccc(CO)c(-n3nc(C#N)cc3C)n2)nn1 [Example 270, 5-Methyl-1-[3-methylol-6-[5-[(6-methylpyridazin-3-yl)amino]benzimidazol-1-yl]-2-pyridyl]pyrazole-3-carbonitrile; formic acid]
24 | 2.1 | 7.3 | 895 | CCn1ncc(-c2nc(-n3cnc4cc(Nc5ccc(C)nn5)ccc43)ccc2C(C)O)c1C (stereo not drawn) [Example 271, 1-[2-(1-Ethyl-5-methyl-pyrazol-4-yl)-6-[5-[(6-methylpyridazin-3-yl)amino]benzimidazol-1-yl]-3-pyridyl]ethanol; formic acid]
25 | 1.2 | 2.4 | 193 | Cc1ccc(Nc2ccc3c(c2)ncn3-c2ccc(C(C)O)c(-c3cnn(CC4CC4)c3C)n2)nn1 (stereo not drawn) [Example 272, 1-[2-[1-(Cyclopropylmethyl)-5-methyl-pyrazol-4-yl]-6-[5-[(6-methylpyridazin-3-yl)amino]benzimidazol-1-yl]-3-pyridyl]ethanol; formic acid]
